The values below come from patent US20260103529A1, “Amino Acid Sequences Directed Against the Melanocortin 4 Receptor and Polypeptides Comprising the Same for the Treatment of MC4R-Related Diseases and Disorders” (Confo Therapeutics N.V., priority 2022, published 2026).

As a reminder, the EC50 is the midpoint of the concentration-response curve.

Format in all cases: cell-based
For assay [1], the system named is highly pigmented normal human epidermal melanocytes (NHEM-HP). Description: In vitro pigmentation assay, melanin synthesis, 2D NHEM highly pigmented. To be noted: 10 days; for melanin synthesis compared to the non-stimulated control, reference compounds: 1 mM L-tyrosine, 100 μM IBMX or 10 μM NDP-MSH. Here is the method:
(§1) Highly and moderately pigmented melanocytes were seeded in 24-well plates and cultured in culture medium for 24 hours. The medium was then replaced by culture medium containing or not (control) the test compounds or the reference compounds (L-tyrosine at 1 mM, IBMX at 100 and 200 μM and NDP-MSH at 10 μM). The cells were then incubated for 10 days with treatment renewal at day 3 and day 7. All experimental conditions were performed in n=3. At the end of the incubation time, the culture supernatants were removed, and melanin was extracted by cell lysis using a 0.5 N NaOH solution. The optical density (OD) of each experimental point was measured at 405 nm and melanin quantity was determined according to melanin standard curve (standard curve ranging from 0.39 to 100 μg/ml). The results were expressed in μg/ml of melanin. […] NHEM-HP response to L-tyrosine and NDP-MSH was stronger than in NHEM-MP while IBMX induced a stronger response in the NHEM-MP.

The subject of assay [2] is moderately pigmented normal human epidermal melanocytes (NHEM-MP). Description: In vitro pigmentation assay, melanin synthesis, 2D NHEM moderately pigmented. Particulars: 10 days; for melanin synthesis compared to the non-stimulated control, reference compounds: 1 mM L-tyrosine, 100 μM IBMX or 10 μM NDP-MSH. Here is the method: as §1
The target in another assay is T1, human wild type MC5R (Homo sapiens, UniProt P33032).
T1 construct: expressed in transfected cells; host or cells: HEK293 / HEK 293T, pcDNA3.1(+)
Description: cAMP GloSensor assay, MC5R. Particulars: HEK293 cells transiently transfected with human MC5R; read-out: average signaling potency (EC50), cAMP GloSensor, MC5R.

The test system of assay [3] is melanized reconstituted human epidermis (RHE/MEL/001). The experiment in a line: In vitro pigmentation assay, 3D reconstituted human epidermis, dermoscopy. Here is the method:
The study was carried out on melanized human epidermis (RHE/MEL/001; batch CB0521-3) in vitro reconstituted with NHEKs (Normal human epidermal keratinocytes, Lonza 00192906) isolated from foreskin of 3 neonatal Caucasian donors and NHEM-DP (Normal Human Epidermal Melanocytes-Darkly pigmented) isolated form one donor (phototype IV-V). The tissues were cultured at the air-liquid interface in Epilife medium (Fisher Scientific, MEP1500CA) containing specific supplements (with among others Human Keratinocytes Growth Factors, Fisher Scientific S0015 or SO01K) and antibiotics (Gentamycin, Fisher Scientific, 15710049). They were maintained in a humid atmosphere at 37° C. with 5% CO2.
RHE/MEL/001 were reconstituted and cultivated at the air-liquid interface during 14 days in Epilife medium supplemented with specific growth supplements (as described in paragraph 1) in a humid atmosphere at 37° C. with CO2 5%.
IBMX (Sigma; 15879) at 100 µM was used as tanning reference compound to validate the experiment. A DMSO control (corresponding to the solvent used to solubilize IBMX) at 0.02% (corresponding to the final concentration in DMSO found in the culture medium for the condition treated with IBMX) was planned as well. Four replicates were planned per condition (n=4).
At the end of the 10 days treatments (at day 14), macroscopic high-resolution pictures of tissues (n=4) were taken. This was performed using the C-Cube device (Dermoscope type tool; Pixience, France) coupled to C-Cube clinical 3 software, which uses a proprietary method of colour calibration, and provides razor-sharp images of high quality and precision. The following endpoints were calculated, each one taking into account 3 values from the mode “L* a* b*” with L* reflecting the luminance/brightness (value from 0 to 100 with high values for clear skins), a* to gives an idea about the redness of the skin (value from −60 to 60 on the red/green axis) and b* to gives an idea about the yellowness of the skin (value from −60 to 60 on the blue/yellow axis): • ITA (Individual Typology Angle) characterizing the phototype, compared to a standard scale, with ITA>55° for very clear skins and ITA<−30° for black skins. • PI (Pigmentation Index) whose value is directly proportional to the skin pigmentation, with PI from 140 for clear skins to 200 for dark skins. • Colorimetric difference (score or ΔE) allows to quantify colour variation between a test condition and a reference. […]
The two test items, hydro-soluble, were evaluated in parallel of one reference compound known to be a pigmentation inducer, namely IBMX. Their capacity to stimulate the production of melanin was evaluated by visual quantification of melanin on macroscopic high resolution pictures obtained by dermoscopy. […]

[4] abbreviates: 10 μM in culture medium, 10 days, dermoscopy.

T1 sequence (P33032 whole entry): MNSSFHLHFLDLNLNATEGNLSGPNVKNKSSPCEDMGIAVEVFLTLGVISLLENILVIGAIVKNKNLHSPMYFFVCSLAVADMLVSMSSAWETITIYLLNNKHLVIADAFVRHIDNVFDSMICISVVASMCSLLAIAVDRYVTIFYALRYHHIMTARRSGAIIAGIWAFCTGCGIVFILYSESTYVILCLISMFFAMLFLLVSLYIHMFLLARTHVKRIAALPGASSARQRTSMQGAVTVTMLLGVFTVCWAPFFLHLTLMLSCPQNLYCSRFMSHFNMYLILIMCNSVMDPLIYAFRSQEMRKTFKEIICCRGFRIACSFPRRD

As to `CC(C)Cn1c(=O)n(C)c(=O)c2[nH]cnc21` [IBMX], the “melanin synthesis compared to the non-stimulated control, reference compounds” value in assay [1] and in assay [2] was “induced a stimulation of melanin synthesis” each time.
`N[C@@H](Cc1ccc(O)cc1)C(=O)O` [L-tyrosine]: the “melanin synthesis compared to the non-stimulated control, reference compounds” value in assay [1] and in assay [2] was “induced a stimulation of melanin synthesis” each time.
On to `CC(=O)N[C@@H](CCCNC(=N)N)C(=O)N[C@H]1CSSC[C@@H](C(N)=O)NC(=O)[C@H](Cc2c[nH]c3ccccc23)NC(=O)[C@H](CCCNC(=N)N)NC(=O)[C@@H](Cc2ccccc2)NC(=O)[C@H](Cc2c[nH]cn2)NC(=O)[C@@H](C)NC1=O` [setmelanotide, reference compound], for which the EC50 on human wild type MC5R turned out to be 451 ± 143 nM.
On to NDP-MSH, for which the “melanin synthesis compared to the non-stimulated control, reference compounds” value in assay [1] and in assay [2] was “induced a stimulation of melanin synthesis” throughout.
“Setmelanotide acetate [reference compound]”: the melanin synthesis in assay [1] (10 μM) is listed as 130 % of the control. In addition, in assay [2], the “modulation of melanin synthesis” value was “did not modulate”. For the same compound, in assay [3] (setting [4]), the “Individual typology angle (ITA)” value is “significantly modulated”; the “pigmentation index (PI)” value is reported as “significantly modulated”; the “visual colorimetric difference (score, ΔE)” value is listed as “significantly modulated”. Moreover, in assay [3] (10 μM, human epidermis in culture), the “effect on epidermis pigmentation (conclusion of dermoscopy analysis)” value is reported as “has a tanning effect”.
